Data as given in publication PMC12385050, “Novel Neuroactive Steroid Analogs and Voltage-Dependent Blockers of CaV3.2 Currents, B372 and YX23, Are Effective Anti-Nociceptives with Diminished Sedative Properties in Intact Female Mice” (Biomolecules, 2025).

What was measured:
CaV3.2 [1] = biological target: T1, CaV3.2 (Homo sapiens, UniProt O95180); assay: whole-cell patch clamp, concentration-response of peak T-current; assay type: cell-based
T1 construct: gene CACNA1H; human CaV3.2 channels stably expressed in HEK-293 cells
T1 sequence (O95180 whole entry): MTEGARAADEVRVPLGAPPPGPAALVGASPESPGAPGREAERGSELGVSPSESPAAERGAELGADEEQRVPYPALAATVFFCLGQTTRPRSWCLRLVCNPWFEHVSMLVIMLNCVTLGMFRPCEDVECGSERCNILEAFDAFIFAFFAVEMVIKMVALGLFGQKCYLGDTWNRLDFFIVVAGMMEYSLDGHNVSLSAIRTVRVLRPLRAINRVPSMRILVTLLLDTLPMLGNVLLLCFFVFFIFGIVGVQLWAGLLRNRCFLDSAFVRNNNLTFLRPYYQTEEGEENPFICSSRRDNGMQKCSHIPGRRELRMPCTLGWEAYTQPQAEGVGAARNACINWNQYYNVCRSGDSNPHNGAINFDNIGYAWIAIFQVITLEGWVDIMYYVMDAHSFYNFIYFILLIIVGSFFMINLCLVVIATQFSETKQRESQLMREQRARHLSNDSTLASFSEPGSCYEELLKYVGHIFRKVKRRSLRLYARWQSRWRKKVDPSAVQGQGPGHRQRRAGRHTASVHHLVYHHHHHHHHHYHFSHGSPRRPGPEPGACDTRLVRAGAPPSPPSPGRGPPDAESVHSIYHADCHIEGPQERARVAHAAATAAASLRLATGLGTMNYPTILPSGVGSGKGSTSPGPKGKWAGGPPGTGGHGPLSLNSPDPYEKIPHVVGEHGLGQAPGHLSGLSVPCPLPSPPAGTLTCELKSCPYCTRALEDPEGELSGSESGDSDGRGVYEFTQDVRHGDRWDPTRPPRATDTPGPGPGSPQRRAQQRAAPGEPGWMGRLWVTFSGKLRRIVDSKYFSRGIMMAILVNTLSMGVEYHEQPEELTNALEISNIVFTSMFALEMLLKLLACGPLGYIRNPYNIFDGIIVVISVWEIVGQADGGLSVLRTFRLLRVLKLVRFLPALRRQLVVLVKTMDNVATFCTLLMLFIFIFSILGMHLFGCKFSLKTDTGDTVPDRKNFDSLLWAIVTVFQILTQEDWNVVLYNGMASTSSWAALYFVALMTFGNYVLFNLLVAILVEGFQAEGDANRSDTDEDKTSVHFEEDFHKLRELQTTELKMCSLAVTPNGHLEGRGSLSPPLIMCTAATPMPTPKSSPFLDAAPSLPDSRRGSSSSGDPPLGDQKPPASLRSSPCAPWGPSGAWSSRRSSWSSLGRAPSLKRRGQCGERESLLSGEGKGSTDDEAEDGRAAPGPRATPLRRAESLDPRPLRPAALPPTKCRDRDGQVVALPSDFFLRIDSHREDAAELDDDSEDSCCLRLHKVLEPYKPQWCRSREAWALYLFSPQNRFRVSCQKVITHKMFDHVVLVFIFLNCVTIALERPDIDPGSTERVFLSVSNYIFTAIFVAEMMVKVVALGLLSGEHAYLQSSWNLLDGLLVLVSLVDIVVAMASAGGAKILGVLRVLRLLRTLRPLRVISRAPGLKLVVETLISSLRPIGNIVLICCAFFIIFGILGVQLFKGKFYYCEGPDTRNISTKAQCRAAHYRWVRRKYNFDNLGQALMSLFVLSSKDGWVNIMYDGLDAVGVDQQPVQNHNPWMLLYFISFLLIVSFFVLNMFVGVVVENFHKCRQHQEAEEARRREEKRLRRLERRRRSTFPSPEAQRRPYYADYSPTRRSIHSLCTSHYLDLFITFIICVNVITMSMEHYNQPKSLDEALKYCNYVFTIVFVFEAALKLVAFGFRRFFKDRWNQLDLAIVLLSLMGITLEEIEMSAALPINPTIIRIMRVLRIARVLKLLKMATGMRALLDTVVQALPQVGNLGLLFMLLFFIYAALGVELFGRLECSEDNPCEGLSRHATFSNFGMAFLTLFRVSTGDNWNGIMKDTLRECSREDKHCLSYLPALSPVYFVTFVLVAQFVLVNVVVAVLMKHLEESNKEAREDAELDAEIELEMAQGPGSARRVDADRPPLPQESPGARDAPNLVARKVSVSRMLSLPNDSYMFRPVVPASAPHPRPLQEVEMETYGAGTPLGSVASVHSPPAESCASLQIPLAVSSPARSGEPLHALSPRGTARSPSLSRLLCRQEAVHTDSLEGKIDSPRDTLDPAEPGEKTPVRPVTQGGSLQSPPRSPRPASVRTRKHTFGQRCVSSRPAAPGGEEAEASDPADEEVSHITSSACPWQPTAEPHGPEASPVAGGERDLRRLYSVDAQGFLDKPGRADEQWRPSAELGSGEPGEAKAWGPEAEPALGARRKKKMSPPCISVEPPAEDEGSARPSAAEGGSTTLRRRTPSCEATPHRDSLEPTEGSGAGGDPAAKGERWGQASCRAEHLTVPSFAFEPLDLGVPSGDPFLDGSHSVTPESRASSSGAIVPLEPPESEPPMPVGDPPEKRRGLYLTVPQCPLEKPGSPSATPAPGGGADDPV

CaV3.2 [2] = biological target: T1, CaV3.2; assay: whole-cell patch clamp, percent inhibition of peak current at […]; assay type: cell-based

Row | Compound | IC50 (CaV3.2 [1]) | inhibition at 10 µM (CaV3.2 [2])
1 | CO[C@H]1CC[C@H]2[C@@H](CC[C@@H]3[C@@H]2CC[C@]2(C)[C@@H](O)CC[C@@H]32)C1 [compound 6, (3β,5α,17β)-3-Methoxyestran-17-ol] | 2.4 µM | –
2 | C[C@]12CC[C@H]3[C@@H](CC[C@H]4C[C@@H](C#N)CC[C@@H]43)[C@@H]1CC[C@@H]2O [ECN, (3β,5α,17β)-17-hydroxyestrane-3-carbonitrile] | – | 47.4 ± 5.2%
3 | C[C@]12CC[C@H](O)C[C@@H]1CC[C@@H]1[C@@H]2CC[C@]2(C)[C@@H](C#N)CC[C@@H]12 [compound 6, (3β,5α,17β)-3-Hydroxyandrostan-17-carbonitrile] | 3.8 µM | –
4 | C[C@]12CC[C@H](O)C[C@H]1CC[C@@H]1[C@@H]2CC[C@]2(C)[C@@H](C#N)CC[C@@H]12 [3β-OH, (3β,5β,17β)-3-hydroxyandrostane-17-carbonitrile] | – | 48.2 ± 4.2%
